From paper PMC11200585, “Prospects for Prostate Cancer Chemotherapy: Cytotoxic Evaluation and Mechanistic Insights of Quinolinequinones with ADME/PK Profile” (Biomedicines, 2024)

What was measured:
DU-145 cells [1] = experiment: Cell cycle assay (flow cytometry, PI); format: cell-based, human; conditions: 24 h, highest concentrations
Experimental: Cells were subjected to AQQ1 and DOXO treatments as previously described for apoptosis necrosis analysis. For cell cycle analysis, a cell population of 1 × 10^6 was collected, centrifuged, and the supernatant was removed. The resulting cellular pellet was re-suspended in 70% cold ethanol in PBS. Subsequently, the cells underwent a single PBS wash, followed by incubation in PBS containing […] PI (Sigma-Aldrich, St. Louis, MO, USA) and 2 mg/mL DNase-free RNase-A (Affymetrix, Inc., Santa Barbara, CA, USA) for 30 min at room temperature in a light-protected environment. Analysis was performed using the BD FACS Calibur Flow Cytometry System, and the BD CellQuest Pro Software software (version 5.1, Becton Dickinson, USA) was employed to determine cell cycle phase distributions in comparison to the control group.

DU-145 cells [2] = experiment: Apoptosis necrosis analysis (Annexin V-FITC / PI flow cytometry); format: cell-based, human; conditions: 1, 2.5, 5 µM, 24 h
Experimental: To assess cellular apoptosis and necrosis, a fluorochrome-labelled Annexin V (FITC) and Propidium Iodide (PI) staining kit (SONY Biotechnology, San Jose, CA, USA) was used according to the manufacturer’s protocol. DU-145 cells were initially seeded at a density of 1 × 10^6 cells per well in 6-well plates. After an incubation period, the cells were treated with varying concentrations of AQQ1 (1, 2.5, and 5 µM) along with negative control for 24 h. Then, the cells were detached using trypsin and then suspended in 500 µL of 1× Binding Buffer. Subsequently, 3 µL of Propidium Iodide (PI) and 5 µL of Annexin V-FITC were added to the cell suspension, followed by a 15 min incubation at room temperature in the dark. Post-incubation, cell analysis was performed via flow cytometry using the BD FACS Calibur Flow Cytometry System. The percentages of apoptotic and necrotic cells were determined using BD CellQuest Pro Software version 5.1 (both from Becton Dickinson, Sunnyvale, CA, USA).

## COc1ccccc1NC1=C(Cl)C(=O)c2nc(C)ccc2C1=O [AQQ1]
DU-145 cells [1]
  population of cells in the G0/G1 phase: significantly increased the population of cells in the G0/G1 phase
DU-145 cells [2]
  live and necrotic cell counts: reduced live cell counts and increased necrotic cells
